In ChEMBL document CHEMBL1137191, “Evaluation of pyrrolidin-2-imines and 1,3-thiazolidin-2-imines as inhibitors of nitric oxide synthase” (Bioorg Med Chem Lett, 2004):

Key:
Nitric oxide synthase 3 = molecular target: T1, Nitric oxide synthase 3 (Homo sapiens, UniProt P29474); assay: Inhibitory activity against Endothelial nitric oxide synthase
T1 sequence (P29474 whole entry): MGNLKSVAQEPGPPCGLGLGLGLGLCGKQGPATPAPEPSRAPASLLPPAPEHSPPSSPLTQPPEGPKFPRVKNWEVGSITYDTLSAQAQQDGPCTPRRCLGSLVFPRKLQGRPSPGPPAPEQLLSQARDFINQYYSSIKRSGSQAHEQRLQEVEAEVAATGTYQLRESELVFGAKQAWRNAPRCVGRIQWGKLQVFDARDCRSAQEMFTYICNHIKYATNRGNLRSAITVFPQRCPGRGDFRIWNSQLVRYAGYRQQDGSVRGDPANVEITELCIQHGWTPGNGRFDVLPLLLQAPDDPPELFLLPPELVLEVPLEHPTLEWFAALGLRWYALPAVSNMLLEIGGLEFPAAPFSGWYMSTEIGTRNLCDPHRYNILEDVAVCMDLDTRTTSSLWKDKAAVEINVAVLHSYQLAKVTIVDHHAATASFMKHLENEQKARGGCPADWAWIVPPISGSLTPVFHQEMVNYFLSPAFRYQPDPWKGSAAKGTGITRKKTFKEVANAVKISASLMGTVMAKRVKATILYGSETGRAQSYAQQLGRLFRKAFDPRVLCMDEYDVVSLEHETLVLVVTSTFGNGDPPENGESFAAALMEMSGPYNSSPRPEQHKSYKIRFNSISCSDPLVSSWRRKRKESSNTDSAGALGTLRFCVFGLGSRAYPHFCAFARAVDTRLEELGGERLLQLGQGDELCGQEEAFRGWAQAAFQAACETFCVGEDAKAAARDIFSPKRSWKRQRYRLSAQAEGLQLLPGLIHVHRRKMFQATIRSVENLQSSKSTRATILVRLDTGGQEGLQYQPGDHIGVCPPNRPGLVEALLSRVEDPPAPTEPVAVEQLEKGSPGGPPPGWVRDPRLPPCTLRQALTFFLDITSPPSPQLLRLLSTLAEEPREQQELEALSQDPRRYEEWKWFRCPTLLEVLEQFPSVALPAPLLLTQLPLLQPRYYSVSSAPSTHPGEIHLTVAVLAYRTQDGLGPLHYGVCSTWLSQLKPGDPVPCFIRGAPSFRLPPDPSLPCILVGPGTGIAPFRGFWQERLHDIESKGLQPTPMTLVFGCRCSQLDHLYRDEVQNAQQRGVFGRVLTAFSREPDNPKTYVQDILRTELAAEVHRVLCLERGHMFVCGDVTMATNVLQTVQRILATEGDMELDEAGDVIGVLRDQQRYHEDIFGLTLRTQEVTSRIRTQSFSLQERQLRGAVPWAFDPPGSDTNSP

[1] = molecular target: Nitric oxide synthase, inducible (Homo sapiens, UniProt P35228); assay: Inhibitory activity against Inducible nitric oxide synthase
Sequence of Nitric oxide synthase, inducible (P35228 whole entry): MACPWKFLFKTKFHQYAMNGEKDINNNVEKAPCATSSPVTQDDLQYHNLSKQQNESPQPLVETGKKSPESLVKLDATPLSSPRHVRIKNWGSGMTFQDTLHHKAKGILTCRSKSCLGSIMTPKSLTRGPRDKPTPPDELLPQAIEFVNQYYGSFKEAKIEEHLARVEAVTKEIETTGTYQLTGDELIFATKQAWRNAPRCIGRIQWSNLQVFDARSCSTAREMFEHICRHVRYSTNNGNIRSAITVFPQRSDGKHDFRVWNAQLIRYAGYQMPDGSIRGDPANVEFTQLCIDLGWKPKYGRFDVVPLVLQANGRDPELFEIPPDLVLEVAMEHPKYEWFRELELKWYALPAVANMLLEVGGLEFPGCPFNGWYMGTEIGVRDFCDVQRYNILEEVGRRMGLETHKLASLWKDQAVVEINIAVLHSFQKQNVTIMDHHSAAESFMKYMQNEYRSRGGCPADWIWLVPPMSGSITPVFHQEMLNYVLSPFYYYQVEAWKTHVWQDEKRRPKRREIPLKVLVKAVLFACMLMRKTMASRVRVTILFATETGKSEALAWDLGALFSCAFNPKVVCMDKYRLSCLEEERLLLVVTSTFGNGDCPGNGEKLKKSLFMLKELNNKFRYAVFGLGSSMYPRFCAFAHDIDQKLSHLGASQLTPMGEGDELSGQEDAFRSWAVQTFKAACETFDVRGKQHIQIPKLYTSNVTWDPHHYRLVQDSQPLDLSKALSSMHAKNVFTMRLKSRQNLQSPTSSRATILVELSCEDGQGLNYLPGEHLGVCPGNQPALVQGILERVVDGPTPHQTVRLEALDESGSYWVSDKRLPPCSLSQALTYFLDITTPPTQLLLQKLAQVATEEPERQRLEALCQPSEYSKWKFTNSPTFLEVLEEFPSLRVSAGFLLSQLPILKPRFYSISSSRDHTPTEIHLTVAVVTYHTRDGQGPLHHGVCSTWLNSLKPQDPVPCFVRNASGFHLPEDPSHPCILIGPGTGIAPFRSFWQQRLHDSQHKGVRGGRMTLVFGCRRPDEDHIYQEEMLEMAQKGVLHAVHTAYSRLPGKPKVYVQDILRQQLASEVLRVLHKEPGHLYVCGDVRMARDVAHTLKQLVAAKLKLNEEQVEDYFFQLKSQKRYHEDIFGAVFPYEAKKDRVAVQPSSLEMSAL

Nitric oxide synthase 1 = Nitric oxide synthase 1 (Homo sapiens, UniProt P29475); assay: Inhibitory activity against Neuronal nitric oxide synthase
Sequence of Nitric oxide synthase 1 (P29475 whole entry): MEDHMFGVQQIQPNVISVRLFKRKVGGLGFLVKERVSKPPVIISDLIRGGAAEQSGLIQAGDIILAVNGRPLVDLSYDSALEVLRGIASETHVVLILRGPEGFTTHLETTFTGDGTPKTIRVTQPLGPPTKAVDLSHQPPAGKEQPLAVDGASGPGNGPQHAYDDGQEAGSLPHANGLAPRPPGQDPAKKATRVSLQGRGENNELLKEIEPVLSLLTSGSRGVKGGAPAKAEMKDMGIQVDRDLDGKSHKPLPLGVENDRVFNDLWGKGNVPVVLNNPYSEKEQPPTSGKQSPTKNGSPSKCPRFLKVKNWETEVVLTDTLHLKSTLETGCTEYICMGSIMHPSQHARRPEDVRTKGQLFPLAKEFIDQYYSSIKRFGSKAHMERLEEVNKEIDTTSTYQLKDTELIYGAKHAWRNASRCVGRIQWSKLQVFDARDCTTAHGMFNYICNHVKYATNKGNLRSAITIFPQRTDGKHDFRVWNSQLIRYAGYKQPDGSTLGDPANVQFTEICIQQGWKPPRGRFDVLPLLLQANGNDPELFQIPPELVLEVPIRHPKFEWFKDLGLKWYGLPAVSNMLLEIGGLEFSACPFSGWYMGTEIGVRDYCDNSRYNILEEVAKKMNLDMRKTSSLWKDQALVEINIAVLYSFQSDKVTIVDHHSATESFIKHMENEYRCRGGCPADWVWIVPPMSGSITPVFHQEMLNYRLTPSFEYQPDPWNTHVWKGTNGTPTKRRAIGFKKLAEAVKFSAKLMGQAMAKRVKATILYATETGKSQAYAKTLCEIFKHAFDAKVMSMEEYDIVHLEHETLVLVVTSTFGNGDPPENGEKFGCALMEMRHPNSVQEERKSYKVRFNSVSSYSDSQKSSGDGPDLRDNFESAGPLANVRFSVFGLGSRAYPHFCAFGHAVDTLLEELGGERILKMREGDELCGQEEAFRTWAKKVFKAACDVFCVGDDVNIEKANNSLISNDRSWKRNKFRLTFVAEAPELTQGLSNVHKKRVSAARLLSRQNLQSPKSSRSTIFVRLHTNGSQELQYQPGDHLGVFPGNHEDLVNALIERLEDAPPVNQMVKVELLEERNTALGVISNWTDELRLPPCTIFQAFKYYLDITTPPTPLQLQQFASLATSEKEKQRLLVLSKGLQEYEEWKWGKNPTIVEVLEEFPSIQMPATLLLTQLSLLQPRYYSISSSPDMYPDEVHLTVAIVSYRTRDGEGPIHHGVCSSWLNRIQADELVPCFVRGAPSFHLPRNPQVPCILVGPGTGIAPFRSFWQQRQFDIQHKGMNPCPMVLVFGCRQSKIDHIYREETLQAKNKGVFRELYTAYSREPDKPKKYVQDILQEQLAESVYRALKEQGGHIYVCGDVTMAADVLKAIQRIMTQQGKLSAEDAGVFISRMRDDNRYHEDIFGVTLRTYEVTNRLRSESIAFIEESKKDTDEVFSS

[2] = molecular target: T2, Nitric oxide synthase 3 (Homo sapiens) (UniProt P29474); assay: Ratio between Endothelial nitric oxide synthase and Inducible nitric oxide synthase
T2 sequence (whole entry): T1 sequence (P29474 whole entry)

**Q.** How did the IC50 (Nitric oxide synthase 3) turn out when N=C1CCC2CCCN12 (stereo unspecified) was run?
**A.** 33 µM

**Q.** And the IC50 [1]?
**A.** > 50 µM

**Q.** What about the IC50 (Nitric oxide synthase 1) of the same molecule?
**A.** 9.6 µM

**Q.** CCCC1N=C(N)CC1C (stereo unspecified) was tested. Which IC50 (Nitric oxide synthase 3) did it give?
**A.** 49 µM

**Q.** What about the Ratio [2] of the same molecule?
**A.** 24

**Q.** And the IC50 [1]?
**A.** 2 µM

**Q.** And the IC50 (Nitric oxide synthase 1)?
**A.** 4.8 µM

**Q.** With CC(=N)NCCCC[C@H](N)C(=O)O [L-NIL] as the molecule, how does the Ratio [2] read?
**A.** 3.7

**Q.** What about the IC50 (Nitric oxide synthase 1) of the same molecule?
**A.** 17.5 µM

**Q.** Which results are given for CCCC1CC(N)=NC1CC (stereo unspecified)?
**A.** IC50 (Nitric oxide synthase 3): 227 µM; Ratio [2]: 22; IC50 [1]: 10.2 µM; IC50 (Nitric oxide synthase 1): 17.3 µM

**Q.** What does the source list for CCC1CC(N)=NC1C (stereo unspecified)?
**A.** IC50 (Nitric oxide synthase 3): 6.3 µM; Ratio [2]: 38; IC50 [1]: 0.16 µM; IC50 (Nitric oxide synthase 1): 0.14 µM

**Q.** What does the source list for CCC1CN=C(N)C1C (stereo unspecified)?
**A.** IC50 (Nitric oxide synthase 3): 60.6 µM; Ratio [2]: 65; IC50 [1]: 0.93 µM; IC50 (Nitric oxide synthase 1): 0.61 µM

**Q.** With NC1=NCCC1 as the molecule, how does the IC50 (Nitric oxide synthase 3) read?
**A.** 4.6 µM

**Q.** What about the Ratio [2] of the same molecule?
**A.** 1.1

**Q.** What about the IC50 [1] of the same molecule?
**A.** 4.1 µM

**Q.** What about the IC50 (Nitric oxide synthase 1) of the same molecule?
**A.** 9.6 µM

**Q.** With CCCC1CN=C(N)C1 (stereo unspecified) as the molecule, how does the IC50 (Nitric oxide synthase 3) read?
**A.** 53 µM

**Q.** What about the Ratio [2] of the same molecule?
**A.** 1.4

**Q.** And the IC50 [1]?
**A.** 38.7 µM

**Q.** And the IC50 (Nitric oxide synthase 1)?
**A.** 53 µM

**Q.** For NC1=NCCS1, which IC50 (Nitric oxide synthase 3) is on record?
**A.** 1.1 µM

**Q.** What about the Ratio [2] of the same molecule?
**A.** 1.2

**Q.** And the IC50 [1]?
**A.** 0.9 µM

**Q.** And the IC50 (Nitric oxide synthase 1)?
**A.** 1.8 µM

**Q.** What does the source list for NC1=NCC(c2ccccc2)C1 (stereo unspecified)?
**A.** IC50 (Nitric oxide synthase 3): > 50 µM; IC50 [1]: > 50 µM; IC50 (Nitric oxide synthase 1): > 50 µM

**Q.** Which IC50 (Nitric oxide synthase 3) does the source give for NC1=NC2CCCC2C1 (stereo unspecified) here?
**A.** > 50 µM

**Q.** And the IC50 [1]?
**A.** > 50 µM

**Q.** What about the IC50 (Nitric oxide synthase 1) of the same molecule?
**A.** 9.9 µM

**Q.** What does the source list for N=C1CCC2CCCCN12 (stereo unspecified)?
**A.** IC50 (Nitric oxide synthase 3): > 50 µM; IC50 [1]: > 50 µM; IC50 (Nitric oxide synthase 1): > 50 µM

**Q.** For NC1=NC(c2ccccc2)CS1 (stereo unspecified), which IC50 (Nitric oxide synthase 3) is on record?
**A.** > 50 µM

**Q.** And the IC50 [1]?
**A.** > 50 µM

**Q.** What about the IC50 (Nitric oxide synthase 1) of the same molecule?
**A.** > 50 µM

**Q.** Which results are given for CCC1CC(C)C(N)=N1 (stereo unspecified)?
**A.** IC50 (Nitric oxide synthase 3): 5.5 µM; Ratio [2]: 0.24; IC50 [1]: 23 µM; IC50 (Nitric oxide synthase 1): 2.4 µM

**Q.** Which results are given for CC1CCN=C1N (stereo unspecified)?
**A.** IC50 (Nitric oxide synthase 3): 1.8 µM; Ratio [2]: 1.2; IC50 [1]: 1.5 µM; IC50 (Nitric oxide synthase 1): 0.9 µM

**Q.** For CC(C)C1CN=C(N)C1 (stereo unspecified), which IC50 (Nitric oxide synthase 3) is on record?
**A.** 87.8 µM

**Q.** What about the Ratio [2] of the same molecule?
**A.** 25

**Q.** And the IC50 [1]?
**A.** 3.5 µM

**Q.** What about the IC50 (Nitric oxide synthase 1) of the same molecule?
**A.** 10.6 µM

**Q.** Which IC50 (Nitric oxide synthase 3) does the source give for CCC1CN=C(N)C1 (stereo unspecified) here?
**A.** 14.5 µM

**Q.** What about the Ratio [2] of the same molecule?
**A.** 27

**Q.** What about the IC50 [1] of the same molecule?
**A.** 0.5 µM

**Q.** What about the IC50 (Nitric oxide synthase 1) of the same molecule?
**A.** 2.6 µM

**Q.** For CC1CN=C(N)C1 (stereo unspecified), which IC50 (Nitric oxide synthase 3) is on record?
**A.** 2.6 µM

**Q.** What about the Ratio [2] of the same molecule?
**A.** 13

**Q.** What about the IC50 [1] of the same molecule?
**A.** 0.2 µM

**Q.** What about the IC50 (Nitric oxide synthase 1) of the same molecule?
**A.** 0.8 µM

**Q.** CC1CN=C(N)S1 (stereo unspecified) was tested. Which IC50 (Nitric oxide synthase 3) did it give?
**A.** > 50 µM

**Q.** And the IC50 [1]?
**A.** > 50 µM

**Q.** What about the IC50 (Nitric oxide synthase 1) of the same molecule?
**A.** > 50 µM

**Q.** For CC1CCC(N)=N1 (stereo unspecified), which IC50 (Nitric oxide synthase 3) is on record?
**A.** 1.9 µM

**Q.** And the Ratio [2]?
**A.** 1.4

**Q.** What about the IC50 [1] of the same molecule?
**A.** 1.3 µM

**Q.** And the IC50 (Nitric oxide synthase 1)?
**A.** 3.1 µM

**Q.** What does the source list for CC1CC(N)=NC1C (stereo unspecified)?
**A.** IC50 (Nitric oxide synthase 3): 0.6 µM; IC50 [1]: 0.3 µM; IC50 (Nitric oxide synthase 1): 0.13 µM

**Q.** For N=C1SCC2CCCN12 (stereo unspecified), which IC50 (Nitric oxide synthase 3) is on record?
**A.** > 50 µM

**Q.** And the IC50 [1]?
**A.** > 50 µM

**Q.** And the IC50 (Nitric oxide synthase 1)?
**A.** 14 µM

**Q.** Which IC50 (Nitric oxide synthase 3) does the source give for CC1CN=C(N)C1C (stereo unspecified) here?
**A.** 8.7 µM

**Q.** What about the Ratio [2] of the same molecule?
**A.** 7.2

**Q.** And the IC50 [1]?
**A.** 1.2 µM

**Q.** What about the IC50 (Nitric oxide synthase 1) of the same molecule?
**A.** 0.61 µM

**Q.** For CCC1N=C(N)CC1C (stereo unspecified), which IC50 (Nitric oxide synthase 3) is on record?
**A.** 0.52 µM

**Q.** What about the Ratio [2] of the same molecule?
**A.** 26

**Q.** What about the IC50 [1] of the same molecule?
**A.** 0.02 µM

**Q.** And the IC50 (Nitric oxide synthase 1)?
**A.** 0.08 µM

**Q.** Which results are given for CCCC1CC(N)=NC1C (stereo unspecified)?
**A.** IC50 (Nitric oxide synthase 3): 104 µM; Ratio [2]: 8; IC50 [1]: 13.1 µM; IC50 (Nitric oxide synthase 1): 27 µM

**Q.** CCCCC1CSC(N)=N1 (stereo unspecified) was tested. Which IC50 (Nitric oxide synthase 3) did it give?
**A.** > 50 µM

**Q.** What about the IC50 [1] of the same molecule?
**A.** 5.2 µM

**Q.** And the IC50 (Nitric oxide synthase 1)?
**A.** 13.2 µM

**Q.** Which results are given for N=C1SCC2CCCCN12 (stereo unspecified)?
**A.** IC50 (Nitric oxide synthase 3): > 50 µM; IC50 [1]: > 50 µM; IC50 (Nitric oxide synthase 1): > 50 µM
